From patent US20240025856A1, “1,2,3,4-TETRAHYDROQUINOLINE DERIVATIVES AS INHIBITORS OF THE YAP/TAZ-TEAD ACTIVATION FOR TREATING CANCER” (KATHOLIEKE UNIVERSITEIT LEUVEN, priority 2020, published 2024)

Tested on: YAP/TAZ-TEAD transcription
Test: Reporter gene assay for measuring the inhibition of YAP/TAZ-TEAD transcription (TEAD-responsive element luciferase reporter in Hek293T cells)
Assay type: cell-based
Settings: Hek293T cells transiently transfected with TEAD-responsive element luciferase reporter, 24 hours incubation
Method in brief: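 Readout is SteadyLite luciferase luminescence from a TEAD-responsive element reporter transiently transfected into Hek293T cells, exposed to compounds for 24 h at 37 °C/5% CO2. IC50 derived from percent inhibition, scaled between vehicle basal activity (0%) and positive control inhibitor (100%).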

Structure (SMILES)	IC50 (Homo sapiens, HEK-293T, 24 h)	IC50
N#CCNC1Cc2ccccc2N(c2ccc(C(F)(F)F)cc2)C1 (stereo not drawn) [compound 054, 2-((1-(4-(trifluoromethyl)phenyl)-1,2,3,4-tetrahydroquinolin-3-yl)amino)acetonitrile]	1 to 20 µM	–
C=CC(=O)NC1Cc2ccccc2N(S(=O)(=O)c2cccc(C(F)(F)F)c2)C1 (stereo not drawn) [compound 186, N-(1-((3-(trifluoromethyl)phenyl)sulfonyl)-1,2,3,4-tetrahydroquinolin-3-yl)acrylamide]	< 1 µM	–
C=CC(=O)NCC1Cc2ccccc2N(C(=O)c2ccccc2)C1 (stereo not drawn) [compound 177, N-((1-benzoyl-1,2,3,4-tetrahydroquinolin-3-yl)methyl)acrylamide]	< 1 µM	–
C=CC(=O)NCC1Cc2ccccc2N(c2ccccc2)C1 (stereo not drawn) [compound 085, N-((1-phenyl-1,2,3,4-tetrahydroquinolin-3-yl)methyl)acrylamide]	< 1 µM	–
N#CCC(=O)NCC1Cc2ccccc2N(c2ccc(C(F)(F)F)cc2)C1 (stereo not drawn) [compound 125, 2-cyano-N-((1-(4-(trifluoromethyl)phenyl)-1,2,3,4-tetrahydroquinolin-3-yl)methyl)acetamide]	< 1 µM	–
C=CC(=O)NC1Cc2ccccc2N(Cc2ccc(Br)cc2)C1 (stereo not drawn) [compound 191, N-(1-(4-bromobenzyl)-1,2,3,4-tetrahydroquinolin-3-yl)acrylamide]	< 1 µM	–
C=CC(=O)NC1Cc2ccccc2N(c2ccc(C(F)(F)F)nc2)C1 (stereo not drawn) [compound 010, N-(1-(6-(trifluoromethyl)pyridin-3-yl)-1,2,3,4-tetrahydroquinolin-3-yl)acrylamide]	< 1 µM	–
C=CC(=O)NC1Cc2c(-c3nnn[nH]3)cccc2N(c2ccc(C(F)(F)F)cc2)C1 (stereo not drawn) [compound 137, N-(5-(1H-tetrazol-5-yl)-1-(4-(trifluoromethyl)phenyl)-1,2,3,4-tetrahydroquinolin-3-yl)acrylamide]	> 20 µM	–
C=CC(=O)NC1Cc2ccccc2N(c2ccc(F)c(F)c2)C1 (stereo not drawn) [compound 018, N-(1-(3,4-difluorophenyl)-1,2,3,4-tetrahydroquinolin-3-yl)acrylamide]	< 1 µM	–
CCC(=O)NCC1Cc2ccccc2N(c2ccc(C(F)F)nc2)C1 (stereo not drawn) [compound 152, N-((1-(6-(difluoromethyl)pyridin-3-yl)-1,2,3,4-tetrahydroquinolin-3-yl)methyl)propionamide]	1 to 20 µM	–
C=CC(=O)NCC1Cc2c(Cc3noc(=O)[nH]3)cccc2N(c2ccc(C(F)(F)F)cc2)C1 (stereo not drawn) [Cpd. No. 168-En2, N-((5-((5-oxo-4,5-dihydro-1,2,4-oxadiazol-3-yl)methyl)-1-(4-(trifluoromethyl)phenyl)-1,2,3,4-tetrahydroquinolin-3-yl)methyl)acrylamide]	–	< 1 µM
C=CC(=O)NCC1Cc2ccccc2N(c2ccc(C(F)(F)F)nc2)C1 (stereo not drawn) [compound 094, N-((1-(6-(trifluoromethyl)pyridin-3-yl)-1,2,3,4-tetrahydroquinolin-3-yl)methyl)acrylamide]	< 1 µM	–
C=CC(=O)NC1Cc2c(Cc3cccc(F)c3)cccc2N(c2ccc(C(F)(F)F)cc2)C1 (stereo not drawn) [compound 063, N-(5-(3-fluorobenzyl)-1-(4-(trifluoromethyl)phenyl)-1,2,3,4-tetrahydroquinolin-3-yl)acrylamide]	< 1 µM	–
C=CC(=O)NC1Cc2ccccc2N(c2ccc(C3CCCCC3)cc2)C1 (stereo not drawn) [compound 019, N-(1-(4-cyclohexylphenyl)-1,2,3,4-tetrahydroquinolin-3-yl)acrylamide]	< 1 µM	–
C=CC(=O)NC1Cc2ccccc2N(c2ccc(C(=O)NC)cc2)C1 (stereo not drawn) [compound 014, 4-(3-acrylamido-3,4-dihydroquinolin-1(2H)-yl)-N-methylbenzamide]	1 to 20 µM	–
OCCCNC1Cc2ccccc2N(c2ccc(C(F)(F)F)cc2)C1 (stereo not drawn) [compound 045, 3-((1-(4-(trifluoromethyl)phenyl)-1,2,3,4-tetrahydroquinolin-3-yl)amino)propan-1-ol]	1 to 20 µM	–
CNS(=O)(=O)CCNCC1Cc2ccccc2N(c2ccc(C(F)(F)F)cc2)C1 (stereo not drawn) [compound 124, N-methyl-2-(((1-(4-(trifluoromethyl)phenyl)-1,2,3,4-tetrahydroquinolin-3-yl)methyl)amino)ethane-1-sulfonamide]	1 to 20 µM	–
C=CC(=O)NC1Cc2ccccc2N(c2ccc3[nH]ccc3c2)C1 (stereo not drawn) [compound 016, N-(1-(1H-indol-5-yl)-1,2,3,4-tetrahydroquinolin-3-yl)acrylamide]	1 to 20 µM	–
C=CC(=O)NCC1Cc2ccccc2N(c2ccc(OC(F)(F)F)cc2)C1 (stereo not drawn) [compound 106, N-((1-(4-(trifluoromethoxy)phenyl)-1,2,3,4-tetrahydroquinolin-3-yl)methyl)acrylamide]	< 1 µM	–
C=CC(=O)NC1Cc2cc(C)ccc2N(c2ccc(C(F)(F)F)cc2)C1 (stereo not drawn) [compound 065, N-(6-methyl-1-(4-(trifluoromethyl)phenyl)-1,2,3,4-tetrahydroquinolin-3-yl)acrylamide]	< 1 µM	–
C=CC(=O)NC1Cc2ccccc2N(C(=O)C2CCCCC2)C1 (stereo not drawn) [Cpd. No. 173, N-(1-(cyclohexanecarbonyl)-1,2,3,4-tetrahydroquinolin-3-yl)acrylamide]	> 20 µM	–
C=CC(=O)NC1Cc2ccccc2N(c2ccc(-c3ccccc3)cc2)C1 (stereo not drawn) [compound 008, N-(1-([1,1′-biphenyl]-4-yl)-1,2,3,4-tetrahydroquinolin-3-yl)acrylamide]	< 1 µM	–
C=CC(=O)NC1Cc2c(NC(C)=O)cccc2N(c2ccc(C(F)(F)F)cc2)C1 (stereo not drawn) [compound 076, N-(5-acetamido-1-(4-(trifluoromethyl)phenyl)-1,2,3,4-tetrahydroquinolin-3-yl)acrylamide]	< 1 µM	–
C=CC(=O)NCC1Cc2ccccc2N(c2cccc(OC)c2)C1 (stereo not drawn) [compound 090, N-((1-(3-methoxyphenyl)-1,2,3,4-tetrahydroquinolin-3-yl)methyl)acrylamide]	< 1 µM	–
C=CC(=O)NCC1Cc2ccccc2N(c2ccnc(C(F)(F)F)c2)C1 (stereo not drawn) [compound 096, N-((1-(2-(trifluoromethyl)pyridin-4-yl)-1,2,3,4-tetrahydroquinolin-3-yl)methyl)acrylamide]	< 1 µM	–
CC(=O)NCC1Cc2c(C(=O)O)cccc2N(c2ccc(C(F)(F)F)cc2)C1 (stereo not drawn) [compound 155, 3-(acetamidomethyl)-1-(4-(trifluoromethyl)phenyl)-1,2,3,4-tetrahydroquinoline-5-carboxylic acid]	> 20 µM	–
O=C(O)CCNC1Cc2ccccc2N(c2ccc(C(F)(F)F)cc2)C1 (stereo not drawn) [compound 046, 3-((1-(4-(trifluoromethyl)phenyl)-1,2,3,4-tetrahydroquinolin-3-yl)amino)propanoic acid]	< 1 µM	–
C=CC(=O)NC1Cc2c(C(N)=O)cccc2N(c2ccc(C(F)(F)F)cc2)C1 (stereo not drawn) [compound 136, 3-acrylamido-1-(4-(trifluoromethyl)phenyl)-1,2,3,4-tetrahydroquinoline-5-carboxamide]	< 1 µM	–
CN(C)C/C=C/C(=O)NC1Cc2ccccc2N(c2ccc(C(F)(F)F)cc2)C1 (stereo not drawn) [compound 041, (E)-4-(dimethylamino)-N-(1-(4-(trifluoromethyl)phenyl)-1,2,3,4-tetrahydroquinolin-3-yl)but-2-enamide]	1 to 20 µM	–
C=CC(=O)NCC1Cc2ccccc2N(Cc2ccccc2)C1 (stereo not drawn) [compound 176, N-((1-benzyl-1,2,3,4-tetrahydroquinolin-3-yl)methyl)acrylamide]	< 1 µM	–
